Assay results: PubChem BioAssay (NCI)
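Step 1: Grow cells in 96-well plates. Step 2: Expose to compound for 48 hours at 5 concentrations. Step 3: Interpolate endpoints linearly; if unreached, use highest concentration. GI50 = concentration required for 50% inhibition of growth. At the TGI there is no net growth.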

Columns and labels:
Test in all cases: NCI anticancer screen, dose series, 48 h
786-0 renal = tested on: 786-0 renal
A498 renal = tested on: A498 renal
A549 NSCLC = tested on: A549 NSCLC
ACHN renal = tested on: ACHN renal
BT-549 breast = tested on: BT-549 breast
CAKI-1 renal = tested on: CAKI-1 renal
CCRF-CEM leukemia = tested on: CCRF-CEM leukemia
COLO 205 colon = tested on: COLO 205 colon
DU-145 prostate = tested on: DU-145 prostate
EKVX NSCLC = tested on: EKVX NSCLC
HCC-2998 colon = tested on: HCC-2998 colon
HCT-116 colon = tested on: HCT-116 colon
HCT-15 colon = tested on: HCT-15 colon
HL-60(TB) leukemia = tested on: HL-60(TB) leukemia
HOP-62 NSCLC = tested on: HOP-62 NSCLC
HOP-92 NSCLC = tested on: HOP-92 NSCLC
HS 578T breast = tested on: HS 578T breast
HT29 colon = tested on: HT29 colon
IGROV1 ovarian = tested on: IGROV1 ovarian
K-562 leukemia = tested on: K-562 leukemia
KM12 colon = tested on: KM12 colon
LOX IMVI melanoma = tested on: LOX IMVI melanoma
M14 melanoma = tested on: M14 melanoma
MALME-3M melanoma = tested on: MALME-3M melanoma
MCF7 breast = tested on: MCF7 breast
MDA-MB-231 breast = tested on: MDA-MB-231 breast
MDA-MB-435 = tested on: MDA-MB-435
MDA-MB-468 breast = tested on: MDA-MB-468 breast
MOLT-4 leukemia = tested on: MOLT-4 leukemia
NCI-H226 lung = tested on: NCI-H226 lung
NCI-H23 lung = tested on: NCI-H23 lung
NCI-H460 lung = tested on: NCI-H460 lung
NCI-H522 lung = tested on: NCI-H522 lung
NCI/ADR-RES ovarian = tested on: NCI/ADR-RES ovarian
OVCAR-3 ovarian = tested on: OVCAR-3 ovarian
OVCAR-4 ovarian = tested on: OVCAR-4 ovarian
OVCAR-5 ovarian = tested on: OVCAR-5 ovarian
OVCAR-8 ovarian = tested on: OVCAR-8 ovarian
PC-3 prostate = tested on: PC-3 prostate
RPMI-8226 leukemia = tested on: RPMI-8226 leukemia
RXF 393 renal = tested on: RXF 393 renal
SF-268 CNS = tested on: SF-268 CNS
SF-295 CNS = tested on: SF-295 CNS
SF-539 CNS = tested on: SF-539 CNS
SK-MEL-2 melanoma = tested on: SK-MEL-2 melanoma
SK-MEL-28 melanoma = tested on: SK-MEL-28 melanoma
SK-MEL-5 melanoma = tested on: SK-MEL-5 melanoma
SK-OV-3 ovarian = tested on: SK-OV-3 ovarian
SN12C renal = tested on: SN12C renal
SNB-19 CNS = tested on: SNB-19 CNS
SNB-75 CNS = tested on: SNB-75 CNS
SR leukemia = tested on: SR leukemia
SW-620 colon = tested on: SW-620 colon
T-47D breast = tested on: T-47D breast
TK-10 renal = tested on: TK-10 renal
U251 CNS = tested on: U251 CNS
UACC-257 melanoma = tested on: UACC-257 melanoma
UACC-62 melanoma = tested on: UACC-62 melanoma
UO-31 renal = tested on: UO-31 renal

## CNS(=O)(=O)N1CCc2c(Br)c3c(c(OC)c2C1CCc1ccccc1)OCO3 (stereo not drawn)
786-0 renal
  GI50: 19.6 µM
  TGI: 62.5 µM
A498 renal
  GI50: 15.7 µM
  TGI: 34.6 µM
A549 NSCLC
  GI50: 14.7 µM
  TGI: > 100 µM
ACHN renal
  GI50: 20.3 µM
  TGI: 92.2 µM
BT-549 breast
  GI50: 15.4 µM
  TGI: 30 µM
CAKI-1 renal
  GI50: 7.25 µM
  TGI: > 100 µM
CCRF-CEM leukemia
  GI50: 24.3 µM
  TGI: > 100 µM
COLO 205 colon
  GI50: 14.9 µM
  TGI: 30.7 µM
DU-145 prostate
  GI50: 29.2 µM
  TGI: > 100 µM
EKVX NSCLC
  GI50: 14.1 µM
  TGI: > 100 µM
HCC-2998 colon
  GI50: 18.4 µM
  TGI: 75.7 µM
HCT-116 colon
  GI50: 6.64 µM
  TGI: 26.3 µM
HCT-15 colon
  GI50: 23.1 µM
  TGI: > 100 µM
HL-60(TB) leukemia
  GI50: 22.9 µM
  TGI: 61.9 µM
HOP-62 NSCLC
  GI50: 13.5 µM
  TGI: 37.5 µM
HOP-92 NSCLC
  GI50: 11.4 µM
  TGI: 33.4 µM
HS 578T breast
  GI50: 12.7 µM
  TGI: 42 µM
HT29 colon
  GI50: 18.7 µM
  TGI: > 100 µM
IGROV1 ovarian
  GI50: 14.1 µM
  TGI: 81.6 µM
K-562 leukemia
  GI50: 17.3 µM
  TGI: > 100 µM
KM12 colon
  GI50: 19.4 µM
  TGI: 78.1 µM
LOX IMVI melanoma
  GI50: 10.1 µM
  TGI: 23.5 µM
M14 melanoma
  GI50: 12.2 µM
  TGI: 34 µM
MALME-3M melanoma
  GI50: 17.8 µM
  TGI: 34.8 µM
MCF7 breast
  GI50: 16.6 µM
  TGI: 90.7 µM
MDA-MB-231 breast
  GI50: 7.33 µM
  TGI: 22.3 µM
MDA-MB-435
  GI50: 12.5 µM
  TGI: 31.3 µM
MDA-MB-468 breast
  GI50: 9.95 µM
  TGI: 35.5 µM
MOLT-4 leukemia
  GI50: 10.4 µM
  TGI: > 100 µM
NCI-H226 lung
  GI50: 10.8 µM
  TGI: 25.8 µM
NCI-H23 lung
  GI50: 17 µM
  TGI: 72.4 µM
NCI-H460 lung
  GI50: 13.7 µM
  TGI: 30.1 µM
NCI-H522 lung
  GI50: 13 µM
  TGI: 38.7 µM
NCI/ADR-RES ovarian
  GI50: 14 µM
  TGI: 86.9 µM
OVCAR-3 ovarian
  GI50: 13.7 µM
  TGI: 29.9 µM
OVCAR-4 ovarian
  GI50: 14.7 µM
  TGI: 85 µM
OVCAR-5 ovarian
  GI50: 14.1 µM
  TGI: 33.8 µM
OVCAR-8 ovarian
  GI50: 24.6 µM
  TGI: > 100 µM
PC-3 prostate
  GI50: 5.67 µM
  TGI: > 100 µM
RPMI-8226 leukemia
  GI50: 12.4 µM
  TGI: > 100 µM
RXF 393 renal
  GI50: 13.5 µM
  TGI: 31.4 µM
SF-268 CNS
  GI50: 16.8 µM
  TGI: > 100 µM
SF-295 CNS
  GI50: 11.1 µM
  TGI: 31.8 µM
SF-539 CNS
  GI50: 15.2 µM
  TGI: 30.1 µM
SK-MEL-2 melanoma
  GI50: 14.5 µM
  TGI: 30.7 µM
SK-MEL-28 melanoma
  GI50: 15.7 µM
  TGI: 31.1 µM
SK-MEL-5 melanoma
  GI50: 15.4 µM
  TGI: 28.8 µM
SK-OV-3 ovarian
  GI50: 20.9 µM
  TGI: 73.6 µM
SN12C renal
  GI50: 11.6 µM
  TGI: 24.7 µM
SNB-19 CNS
  GI50: 23.8 µM
  TGI: > 100 µM
SNB-75 CNS
  GI50: 4.24 µM
  TGI: 34.5 µM
SR leukemia
  GI50: 24 µM
  TGI: > 100 µM
SW-620 colon
  GI50: 21.8 µM
  TGI: > 100 µM
T-47D breast
  GI50: 9.48 µM
  TGI: 67.4 µM
TK-10 renal
  GI50: 34.4 µM
  TGI: > 100 µM
U251 CNS
  GI50: 15.6 µM
  TGI: 35.6 µM
UACC-257 melanoma
  GI50: 20.9 µM
  TGI: 51.5 µM
UACC-62 melanoma
  GI50: 6.4 µM
  TGI: 21.4 µM
UO-31 renal
  GI50: 10.2 µM
  TGI: 69.1 µM
